Data on 8 molecules can be found in PubChem BioAssay (NCI).

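Where inhibition never reached the appropriate level, the endpoint shown equals the highest concentration tested. Otherwise, values were interpolated linearly from a five-concentration, 48-hour dose response in 96-well plates. At the TGI there is no net growth.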 Where a SMILES comes first, the peptide text is derived from it. The star is where a group is joined. Boc = CC(C)(C)OC(=O)*; OBn = c1ccc(CO*)cc1 Bounds are passed on as bounds.

Experiment in all cases: NCI-60 cell line screen, 48 h
For assay [1], the system named is 786-0 renal.
For assay [2], the system named is CCRF-CEM leukemia.
For assay [3], the system named is HCT-15 colon.
Assay [4] concerns HL-60(TB) leukemia.
The subject of assay [5] is K-562 leukemia.
Assay [6] deals with LOX IMVI melanoma.
In assay [7] the test system is MALME-3M melanoma.
Assay [8] concerns MDA-MB-231 breast.
For assay [9], the system named is NCI-H522 lung.
The subject of assay [10] is PC-3 prostate.
The subject of assay [11] is TK-10 renal.

With `CN(C)CCNC(=O)c1cccc2nc3c(nc12)-c1ccccc1C3=O`, the TGI is 30.2 µM in assay [1]; 17.4 µM in assay [2]; 41.4 µM in assay [3]; 22.7 µM in assay [4]; over 100 µM in [5]; 12.7 µM in assay [6]. The TGI in [7] came to 24.2 µM; in [8], 23.8 µM; in [9], 30.7 µM; in assay [10], 35 µM; in assay [11] it was 56.6 µM.
For the molecule `CCOC(=O)/C=C(/C(=O)OCC)n1cc(C)c(=O)n(Cc2cn(COCCOC(C)=O)nn2)c1=O`, the TGI in assay [1] was over 54.8 µM; in assay [2] it was 5.33 µM; in [3], over 61.9 µM; in assay [4], 84 µM; in [5] it was 63.2 µM; in [6], 47.8 µM. For the same molecule, the TGI in assay [7] was 23.7 µM; in [8], 50.9 µM; in assay [9], 6.9 µM; in assay [10] it was over 100 µM; in [11], 29.2 µM.
In the case of `CC(C)(C)C1(COC(=O)c2ccc(N)cc2)COC1`, the TGI in assay [1], in [2], in [3], in assay [4], in assay [5] and in [6] was over 100 µM in each case. Further, the TGI in assay [7], in assay [8], in assay [9], in assay [10] and in [11] was over 100 µM throughout.
Consider `CC(NC(=O)C(NC(=O)OC(C)(C)C)C(C)C)C(=O)N1CCCC1C(=O)NCC(=O)NC(C(=O)NCC(=O)OCc1ccccc1)C(C)C` (stereo not drawn) (Boc-VAPGVG-OBn; configuration not given here), for which the TGI in [1], in assay [2], in assay [3], in [4], in [5] and in assay [6] was over 100 µM throughout. Further, the TGI in assay [7], in assay [8], in [9], in [10] and in [11] was over 100 µM each time.
For the molecule `[N-]=[N+]=CC(=O)OCC1SCCCS1`, the TGI in assay [1], in assay [2], in assay [3], in [4], in assay [5] and in [6] was over 100 µM in each case. The TGI in assay [7], in [8], in assay [9], in assay [10] and in [11] was over 100 µM in each case.
On to `O=c1cc(N2CCCC2)[nH]c(=O)n1-c1cccc(C(F)(F)F)c1`, for which the TGI in [1], in assay [2], in assay [3], in assay [4], in assay [5] and in [6] was over 100 µM throughout. Besides, the TGI in assay [7], in assay [8], in assay [9], in assay [10] and in assay [11] was over 100 µM each time.
`Cc1sc(/N=C/c2c[nH]c3ccccc23)c(C#N)c1C`: the TGI is over 100 µM in assay [1]; 58.3 µM in [2]; over 100 µM in assay [3]; over 100 µM in assay [4]; over 100 µM in assay [5]; over 100 µM in [6]. The TGI in [7] is over 100 µM; in assay [8], over 100 µM; in [9], over 100 µM; in assay [10] it was over 100 µM; in assay [11] it was 74.9 µM.
As for `C=CCSC1=N/C(=C\c2ccccc2)C(=O)N1CC=C`, the TGI in [1] was over 100 µM; in [2] it was 49.8 µM; in [3], over 100 µM; in assay [4], 18.7 µM; in [5] it was over 100 µM; in [6], over 81.3 µM. Also, the TGI was over 100 µM in [7]; over 100 µM in assay [8]; over 100 µM in assay [9]; over 75.8 µM in assay [10]; over 100 µM in [11].
